Source: US8178087B2, “Process of production of bacteriophage compositions and methods in phage therapy field” (priority 2006, dated 2012)

Key:
[1] = system: uropathogenic Escherichia coli strain; experiment: antibiotic sensitivity test disks on Petri plate inoculated with child's urine (phage plaques around disks); assay type: cell-based; settings: plate inoculated with dilution of child's urine; strain infected by bacteriophages
non-infected E. coli MFP = experiment: antibiotic sensitivity test disks on non-infected MFP strain; assay type: cell-based, Escherichia coli; settings: FIG. 1
φmF-infected E. coli MFP = experiment: φmF plaque size around antibiotic disks on MFP strain; assay type: cell-based, Escherichia coli
Source text: A culture of non-infected MFP strain has been grown overnight in LB liquid medium, and then a dilution of the culture either alone or mixed with φmF phage have been inoculated on a series of nutrient Petri plate where different antibiotic sensitivity test disks were placed on the surface.
The entire surface of the Petri plate was inoculated with a mixture of both the MFP bacterial host and with the phage φmF that could infect it (see FIG. 1, φmF-infected E. coli MFP).

AS19 bacterial strain [2] = experiment: different antibiotic test disks, T4-type phages on AS19 bacterial strain; assay type: cell-based, E. coli; settings: T4-like phages
[3] = system: Escherichia. coli bacterial strain AS19; experiment: T4 plaque size with CTX disk on bacterial strain AS19; assay type: cell-based; set-up: key to the marks not given beside the values; settings: bacterial strain AS19, bacteriophage T4, CTX test disk
[4] = system: Escherichia. coli bacterial strain P400; experiment: T4 plaque size with CTX disk on bacterial strain P400; assay type: cell-based; settings: bacterial strain P400, bacteriophage T4, CTX test disk
[5] = system: Escherichia. coli bacterial strain BE; experiment: T4 plaque size with CTX disk on bacterial strain BE; assay type: cell-based; set-up: key to the marks not given beside the values; settings: bacteriophage T4, CTX test disk
AS19 bacterial strain [6] = experiment: growth of AS19 bacterial strain in LB liquid medium with low dose CTX (OD600, CFU/ml); assay type: cell-based, E. coli; settings: CTX 0.003 μg/ml
Description: Growth was measured either by OD600 (A) or CFU/ml (B). The times (T) is indicated in minutes after addition of CTX to the growth medium.
To examine the effect of low doses of the β-lactam antibiotic CTX on a culture of the AS19 bacterial strain, this bacterial strain was grown in LB liquid medium with CTX at a dosage level (0.003 μg/ml) that produces a substantial effect synergistic when infected with T4 phage.

AS19 bacterial strain [7] = experiment: morphology of T4 infected AS19 bacteria with or without CTX by optical microscopy; assay type: cell-based, E. coli; settings: CTX 0.003 μg/ml, several hours after infection, FIG. 4
Source text: The morphology of the bacteria in culture has been observed by optical microscopy at different times after infection.

[8] = system: Escherichia. coli bacterial strain S/6; experiment: T4 plaque size with CTX disk on bacterial strain S/6; set-up: key to the marks not given beside the values; settings: bacterial strain S/6, bacteriophage T4, CTX test disk
[9] = system: Escherichia. coli bacterial strain C600; experiment: T4 plaque size with CTX disk on bacterial strain C600; settings: bacterial strain C600, bacteriophage T4, CTX test disk
[10] = system: Escherichia. coli bacterial strain MC1061; experiment: T4 plaque size with CTX disk on bacterial strain MC1061; settings: bacterial strain MC1061, bacteriophage T4, CTX test disk

C[C@H]1[C@H](NC(=O)/C(=N\OC(C)(C)C(=O)O)c2csc(N)n2)C(=O)N1S(=O)(=O)O [ATM, aztreonam] was tested, and the “size of phage plaques in the zone of non lethal concentrations of antibiotic that encircled antibiotic disks” value [1] was “much larger”, the “sensitivity or resistance of the MFP bacterial strain to antibiotic (zone of growth inhibition around disks)” value (non-infected E. coli MFP) was “sensitivity” and the “stimulation of phage φMFP growth by antibiotic disks” value (φmF-infected E. coli MFP; FIG. 1, disks marked with +) was “good stimulation”. For the same compound, the “size of φmF plaques in the zone of non lethal antibiotic concentration around disks” value (φmF-infected E. coli MFP; MFP host mixed with phage φmF, FIG. 1) was “significantly larger size”.
With NCC[C@H](O)C(=O)N[C@@H]1C[C@H](N)[C@@H](O[C@H]2O[C@H](CN)[C@@H](O)[C@H](O)[C@H]2O)[C@H](O)[C@H]1O[C@H]1O[C@H](CO)[C@@H](O)[C@H](N)[C@H]1O [Amikacin] the “stimulation of T4 phage production (synergistic effect on phage T4 growth)” value (“stimulation of T4 phage production” below) (AS19 bacterial strain [2]) was “failed to stimulate T4 phage production”.
In the case of CC1(C)S[C@@H]2[C@H](NC(=O)[C@H](N)c3ccc(O)cc3)C(=O)N2[C@H]1C(=O)O [Amoxicillin], the “sensitivity or resistance of the MFP bacterial strain to antibiotic (zone of growth inhibition around disks)” value (non-infected E. coli MFP) is reported as “resistance”.
In the case of CO/N=C(\C(=O)N[C@@H]1C(=O)N2C(C(=O)O)=C(COC(C)=O)CS[C@H]12)c1csc(N)n1 [CTX, Cefotaxime], the “synergy (size of phage plaques) with CTX (Cefotaxime)” value (“synergy (size of phage plaques)” for short) [3] is reported as “+++”, the “synergy (size of phage plaques)” value [4] is reported as “+” and the “synergy (size of phage plaques)” value [5] is reported as “+++”. The “cell viability as assayed by colony forming units” value (AS19 bacterial strain [6]; LB liquid medium) was “little effected”, the cell division (AS19 bacterial strain [6]; LB liquid medium, FIGS. 3A and 3B) was “inhibited” and the “optical density of the culture treated with the drug” value (AS19 bacterial strain [6]; after the addition of the drug) was “continues to increase for at least two hours”. The “cell size of the T4 infected bacteria” value (AS19 bacterial strain [7]) was “increases in volume considerably producing long fat filaments”, the “synergy (size of phage plaques)” value [8] was “++” and the “synergy (size of phage plaques)” value [9] was “+”. The “synergy (size of phage plaques)” value [10] was “+”.
For O=C(N[C@H](CO)[C@H](O)c1ccc([N+](=O)[O-])cc1)C(Cl)Cl [Choramphenicol], the “stimulation of T4 phage production” value (AS19 bacterial strain [2]) was “failed to stimulate T4 phage production”.
C[C@@H]1O[C@@H]1P(=O)(O)O [Fosfomycin] was tested, and the “stimulation of T4 phage production” value (AS19 bacterial strain [2]) was “failed to stimulate T4 phage production”.
For CCn1cc(C(=O)O)c(=O)c2ccc(C)nc21 [Nalidix Acid, Nalidixic acid], the “stimulation of T4 phage production” value (AS19 bacterial strain [2]) was “causes a synergistic effect”.
With CO[C@H]1/C=C/O[C@@]2(C)Oc3c(C)c(O)c4c(O)c(c(/C=N/N5CCN(C)CC5)c(O)c4c3C2=O)NC(=O)/C(C)=C\C=C\[C@H](C)[C@H](O)[C@@H](C)[C@@H](O)[C@@H](C)[C@H](OC(C)=O)[C@@H]1C [Rifampin] the “stimulation of T4 phage production” value (AS19 bacterial strain [2]) was “failed to stimulate T4 phage production”.
In the case of COc1cc(Cc2cnc(N)nc2N)cc(OC)c1OC [Trimethoprim], the “stimulation of T4 phage production” value (AS19 bacterial strain [2]) is reported as “failed to stimulate T4 phage production”.
For Colistin, the “stimulation of T4 phage production” value (AS19 bacterial strain [2]) was “failed to stimulate T4 phage production”.
With Gentamicin the “stimulation of T4 phage production” value (AS19 bacterial strain [2]) was “failed to stimulate T4 phage production”.
